Measurements published in ChEMBL document CHEMBL1201862, “PubChem BioAssay data set” (2004).
Calls of active or inactive are those of the source. Cut-off read from the data, not from the text of the source, for most assays here: actives have a measured EC50 and inactives only a lower limit.

Target: T1, RNA-binding protein pos-1 (Caenorhabditis elegans, UniProt G5EF15)
T1 sequence (G5EF15 whole entry): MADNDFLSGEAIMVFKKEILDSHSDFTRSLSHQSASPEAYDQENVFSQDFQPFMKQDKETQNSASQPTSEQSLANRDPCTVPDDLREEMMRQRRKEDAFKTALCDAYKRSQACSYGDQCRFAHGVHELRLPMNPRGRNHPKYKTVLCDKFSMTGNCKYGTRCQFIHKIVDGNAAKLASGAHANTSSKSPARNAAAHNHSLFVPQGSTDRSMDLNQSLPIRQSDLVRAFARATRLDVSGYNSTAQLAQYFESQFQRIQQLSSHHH
Assay: inhibitors of POS-1/mex-3 RNA binding, dose response, biochemical, fluorescence polarization (AID 1964);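 note: purified POS-1 fused to maltose binding protein made in E. coli; potency of compounds blocking POS-1 binding to fluorescent RNA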

Row | SMILES | EC50
1 | N#C/C(=N\Nc1ccc(Cl)cc1)C(=O)c1ccsc1 | 81.6 µM (active)
2 | COc1ccc(-n2nc3c(=O)[nH][nH]c3cc2=O)cc1 | 13.1 µM (active)
3 | N#Cc1c(N)nc(SCc2ccccc2)c(C#N)c1-c1ccco1 | > 300 µM (not active)

Test system: Streptococcus sp. 'group A'
Assay: growth inhibition of control SK(-) GAS strain, dose response, counter-screen for streptokinase expression inhibitor project, luminescence, kanamycin, BacTiterGlo, confirmation (AID 1900)
Assay type: functional, organism-based

Row | SMILES | EC50
4 | COc1ccc(-c2cc(C(F)(F)F)nc(NCc3cccs3)n2)cc1 | 3.73 µM (active)

Test system: not listed separately
Assay: Luminescence Cell-Based Dose Response HTS to Identify Inhibitors of 5'UTR Stem-Loop Driven Prion Protein mRNA Translation in H4 Neuroglioblastoma Cells. [Related pubchem assays: 1827 (Project Summary), 1813 (Primary HTS)]
Assay type: functional

Row | SMILES | EC50
5 | Cc1csc(NC(=O)c2cc3c(s2)CCCCC3)n1 | 2.57 µM (active)

Target: T2, Zinc finger protein mex-5 (Caenorhabditis elegans, UniProt Q9XUB2)
T2 sequence (Q9XUB2 whole entry): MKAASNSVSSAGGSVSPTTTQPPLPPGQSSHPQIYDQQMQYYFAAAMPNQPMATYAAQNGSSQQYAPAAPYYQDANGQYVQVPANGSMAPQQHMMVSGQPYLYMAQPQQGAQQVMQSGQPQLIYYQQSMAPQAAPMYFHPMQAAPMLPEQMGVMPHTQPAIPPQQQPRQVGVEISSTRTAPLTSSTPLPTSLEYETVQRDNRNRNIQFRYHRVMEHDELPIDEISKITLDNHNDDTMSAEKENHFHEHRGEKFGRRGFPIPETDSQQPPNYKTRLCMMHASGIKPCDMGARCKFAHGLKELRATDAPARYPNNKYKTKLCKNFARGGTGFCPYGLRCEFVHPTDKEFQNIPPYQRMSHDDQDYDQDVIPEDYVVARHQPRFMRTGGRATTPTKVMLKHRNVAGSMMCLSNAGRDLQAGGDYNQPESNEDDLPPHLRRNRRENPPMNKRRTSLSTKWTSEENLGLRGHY
Assay: MEX-5/TCR-2 RNA interaction inhibitors, dose response, biochemical, C. elegans, fluorescence polarization (AID 1960)

Row | SMILES | EC50
6 | N#C/C(=N\Nc1ccc(Cl)cc1)C(=O)c1ccsc1 | 10.8 µM (active)
7 | COc1ccc(-n2nc3c(=O)[nH][nH]c3cc2=O)cc1 | 3.67 µM (active)
8 | N#Cc1c(N)nc(SCc2ccccc2)c(C#N)c1-c1ccco1 | > 300 µM (not active)

Test system: not listed separately
Assay: inhibitors of SNCA 5'UTR-driven reporter translation, confirmation, H4 neuroglioma cells, luminescence (AID 1988)
Assay type: functional, cell-based

Row | SMILES | EC50
9 | Cc1csc(NC(=O)c2cc3c(s2)CCCCC3)n1 | 3.58 µM (active)

Target: T3, Streptokinase A (Streptococcus pyogenes serotype M1, UniProt P10520)
T3 sequence (P10520 whole entry): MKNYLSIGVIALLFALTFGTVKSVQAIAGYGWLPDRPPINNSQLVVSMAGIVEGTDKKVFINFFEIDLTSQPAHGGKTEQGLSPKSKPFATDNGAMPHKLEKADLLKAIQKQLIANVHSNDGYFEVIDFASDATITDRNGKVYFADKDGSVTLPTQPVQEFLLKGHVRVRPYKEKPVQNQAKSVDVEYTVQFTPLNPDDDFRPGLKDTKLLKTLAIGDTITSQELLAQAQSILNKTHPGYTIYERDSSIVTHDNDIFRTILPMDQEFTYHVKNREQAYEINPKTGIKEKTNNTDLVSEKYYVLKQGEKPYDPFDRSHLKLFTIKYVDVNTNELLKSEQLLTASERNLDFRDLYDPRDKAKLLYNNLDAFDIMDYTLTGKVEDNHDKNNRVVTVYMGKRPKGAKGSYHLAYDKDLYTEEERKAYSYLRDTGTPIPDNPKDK
Assay: S. pyogenes streptokinase expression inhibitors, potency, dose response, plasminogen activation absorbance, OD405 (AID 1914);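 note: secreted streptokinase activity via plasminogen activation per viability signal from cell pellet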
Assay type: functional, Streptococcus pyogenes M1 GAS

Row | SMILES | EC50
10 | COc1ccc(-c2cc(C(F)(F)F)nc(NCc3cccs3)n2)cc1 | 13.8 µM (active)

Target: Luciferin 4-monooxygenase (Photinus pyralis, UniProt P08659)
Sequence (P08659 whole entry): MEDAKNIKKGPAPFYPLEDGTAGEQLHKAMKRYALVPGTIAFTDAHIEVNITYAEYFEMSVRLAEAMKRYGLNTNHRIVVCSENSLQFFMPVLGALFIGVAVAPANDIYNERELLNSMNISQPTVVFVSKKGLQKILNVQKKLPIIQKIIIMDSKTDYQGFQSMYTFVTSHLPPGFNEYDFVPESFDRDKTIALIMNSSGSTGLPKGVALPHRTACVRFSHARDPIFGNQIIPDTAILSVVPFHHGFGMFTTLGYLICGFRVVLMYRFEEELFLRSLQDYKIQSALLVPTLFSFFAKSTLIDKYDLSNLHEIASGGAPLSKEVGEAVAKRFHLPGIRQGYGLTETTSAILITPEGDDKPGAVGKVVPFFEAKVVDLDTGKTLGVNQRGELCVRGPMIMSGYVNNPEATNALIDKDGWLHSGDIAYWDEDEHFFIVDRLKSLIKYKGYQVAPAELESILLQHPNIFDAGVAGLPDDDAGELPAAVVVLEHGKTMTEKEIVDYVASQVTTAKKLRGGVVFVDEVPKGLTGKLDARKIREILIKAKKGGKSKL
Assay: firefly luciferase enzyme inhibitors, dose response, biochemical, luminescence (AID 1891)

Row | SMILES | EC50
11 | CC(=O)N(Cc1c(C#N)c2ccccc2n1C)c1ccccc1 | > 112 µM (not active)
12 | O=C(COC(=O)c1ccc(Cl)c(S(=O)(=O)NCc2ccccc2)c1)NCC1CCCO1 (stereo unspecified) | > 112 µM (not active)
13 | NC(=O)c1ccc[n+](Cc2ccccc2)c1 | > 112 µM (not active)
14 | CC(C)(C)C(Cn1ccnc1)NC(=O)c1ccc2nc(C3CC3)oc2c1 (stereo unspecified) | > 112 µM (not active)
15 | COc1ccc(C2=Nn3c(nnc3-c3cc(C)[nH]n3)SC2)cc1 | > 112 µM (not active)
16 | O=C(Nc1ccc2oc(-c3ccccc3)nc2c1)C1CCCO1 (stereo unspecified) | 70.4 µM (active)
17 | CC(N)Cc1ccccc1Sc1ccc(O)cc1 (stereo unspecified) | > 112 µM (not active)
18 | COc1cccc(C(=O)c2cc3ccc(O)cc3oc2=O)c1 | 0.571 µM (active)
19 | Cc1ccc(-c2cc(N)n(Cc3ccc(Cl)cc3)n2)cc1 | > 112 µM (not active)
20 | Cc1ccnn1CC(=O)N/N=C/c1c[nH]nc1-c1ccccc1 | > 112 µM (not active)
21 | C/C(=N\NC(=O)C1(C)CC1(Br)Br)c1ccc(NC(=O)c2ccc(C)o2)cc1 (stereo unspecified) | > 112 µM (not active)

Test system: not listed separately
Assay: Luminescence Cell-Based Dose Confirmation HTS to Identify Inhibitors of Platelet Dense Granule Release. [Related pubchem assays: 1663 (Primary HTS), 1678 (Summary of Project)]
Assay type: functional

Row | SMILES | EC50
22 | CC(=O)N(Cc1c(C#N)c2ccccc2n1C)c1ccccc1 | > 112 µM (not active)
23 | O=C(COC(=O)c1ccc(Cl)c(S(=O)(=O)NCc2ccccc2)c1)NCC1CCCO1 (stereo unspecified) | > 112 µM (not active)
24 | NC(=O)c1ccc[n+](Cc2ccccc2)c1 | > 112 µM (not active)
25 | CC(C)(C)C(Cn1ccnc1)NC(=O)c1ccc2nc(C3CC3)oc2c1 (stereo unspecified) | > 112 µM (not active)
26 | COc1ccc(C2=Nn3c(nnc3-c3cc(C)[nH]n3)SC2)cc1 | > 112 µM (not active)
27 | O=C(Nc1ccc2oc(-c3ccccc3)nc2c1)C1CCCO1 (stereo unspecified) | 25.1 µM (active)
28 | CC(N)Cc1ccccc1Sc1ccc(O)cc1 (stereo unspecified) | > 112 µM (not active)
29 | COc1cccc(C(=O)c2cc3ccc(O)cc3oc2=O)c1 | 1.28 µM (active)
30 | Cc1ccc(-c2cc(N)n(Cc3ccc(Cl)cc3)n2)cc1 | > 112 µM (not active)
31 | Cc1ccnn1CC(=O)N/N=C/c1c[nH]nc1-c1ccccc1 | > 112 µM (not active)
32 | C/C(=N\NC(=O)C1(C)CC1(Br)Br)c1ccc(NC(=O)c2ccc(C)o2)cc1 (stereo unspecified) | > 112 µM (not active)

Test system: not listed separately
Assay: inhibitors of intracellular T. cruzi replication, confirmation, NIH3T3 host cells, beta-gal luminescence (AID 2044);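 note: intracellular parasites grown in NIH/3T3 mouse fibroblasts as host cells; luminescent beta-galactosidase reporter signal from transgenic T. cruzi replicating inside host cells; inhibitors lower the luminescence signal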
Assay type: functional, cell-based

Row | SMILES | EC50
33 | COc1ccc(-c2cc(C(F)(F)F)nc(NCc3cccs3)n2)cc1 | 2.19 µM (active)

Test system: not listed separately
Assay: cytotoxicity toward NIH3T3 fibroblasts, dose response, counter-screen, cell-based, ATP luminescence, mouse fibroblasts (AID 2010);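 note: cells exposed to compound for about 90 hours before reading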
Assay type: functional

Row | SMILES | EC50
34 | COc1ccc(-c2cc(C(F)(F)F)nc(NCc3cccs3)n2)cc1 | > 60 µM (not active)

Test system: Streptococcus
Assay: Group A Streptococcus viability loss, dose response, counter-screen for streptokinase expression inhibitor project, luminescence, BacTiterGlo (AID 1915);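 note: potency for reduction of bacterial viability or growth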
Assay type: functional, organism-based

Row | SMILES | EC50
35 | COc1ccc(-c2cc(C(F)(F)F)nc(NCc3cccs3)n2)cc1 | > 150 µM (not active)

Target: Cytochrome P450 2C9 (Homo sapiens, UniProt P11712)
Sequence (P11712 whole entry): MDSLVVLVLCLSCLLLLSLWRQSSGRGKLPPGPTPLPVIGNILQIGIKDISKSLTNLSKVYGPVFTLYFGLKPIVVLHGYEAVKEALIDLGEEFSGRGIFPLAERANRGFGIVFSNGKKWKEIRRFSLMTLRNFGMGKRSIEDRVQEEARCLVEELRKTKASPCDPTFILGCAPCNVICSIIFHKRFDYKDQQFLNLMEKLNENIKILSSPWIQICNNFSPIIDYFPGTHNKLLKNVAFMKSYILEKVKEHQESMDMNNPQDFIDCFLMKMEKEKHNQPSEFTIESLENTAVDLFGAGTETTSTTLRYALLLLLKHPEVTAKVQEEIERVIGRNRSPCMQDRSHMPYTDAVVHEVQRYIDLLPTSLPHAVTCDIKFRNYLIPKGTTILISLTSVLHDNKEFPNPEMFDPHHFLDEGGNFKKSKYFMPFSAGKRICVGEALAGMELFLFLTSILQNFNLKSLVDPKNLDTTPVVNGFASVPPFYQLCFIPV

Row | SMILES | AC50
36 | CC(N)Cc1ccccc1Sc1ccc(O)cc1 (stereo unspecified) | 17.8 µM (inconclusive)
